Measured values reported in patent US5877210A, “Phosphotyrosine phosphatase inhibitors or phosphotyrosine kinase activators for controlling cellular proliferation” (priority 1995, dated 1999).

Legend:
Ramos B cells [1] = assay: TUNEL analysis of fragmented DNA by flow cytometry; assay type: cell-based, human; conditions: 25 or 50 μM BMLOV, 48 h
Method: (§1) TUNEL (TdT-mediated dUTP-biotin nick end labeling) staining for the in situ detection of fragmented DNA was as previously described (Y. Gavrieli et al., J. Cell Biol. 119:493-501 (1992)) with modification to permit detection by flow cytometry. Cells (2×106) were washed with PBS and resuspended in 4% formaldehyde in PBS at 4° C. for 4 h for fixation. Cells were rinsed in PBS and permeabilized by resuspension in 70% ethanol in PBS for 1 h at 4° C. Cells were rinsed with PBS, rinsed with TdT buffer (30 mM Tris-HCl, pH 7.2, 140 mM cacodylate, 1 mM cobalt chloride) and resuspended in 150 μl TdT buffer. Biotin-dUTP (SIGMA, St. Louis, Mo.) was added to 15 μM and terminal deoxynucleotidyl transferase (TdT, Boehringer Mannheim) was added to 0.6 U/μl. DNA synthesis was for 1 h at 37° C. and was stopped by the addition of 1 ml cold PBS. Cells were rinsed twice with PBS and resuspended in 500 μl of PBS containing 5 μg of fluorescein-avidin at 4° C. for 16 h. Cells were washed twice in PBS and resuspended in 400 μl of PBS for flow cytometry. Cells were analyzed using a Becton-Dickinson FACScan flow cytometer and LYSIS analysis software.
(§2) The extent of DNA fragmentation and the cell type selective activity was quantitated by TUNEL analysis (Y. Gavrieli et al., (1992), supra); FIG. 28). […]

Jurkat T cells = assay: TUNEL analysis of fragmented DNA by flow cytometry; assay type: cell-based, human; conditions: 25 or 50 μM BMLOV, 48 h
Method: as §1, §2

Ramos B cells [2] = assay: Confocal laser scanning microscopy; assay type: cell-based, human; conditions: 25 μm BMLOV, 48 h
Method: Cells were fixed with 3.7% formaldehyde in PBS and permeabilized by treatment with 0.1% saponin. […] The cells were then washed three times in staining buffer, and stained with fluorescein-labeled goat anti-rabbit antibody (Molecular Probes). After washing three times in staining buffer, cells were stained for DNA with 2 μg/ml propidium iodide. A Leica GmbH confocal laser scanning microscope (CLSM) (Leica Laser Technic, Heidelberg, Germany) equipped with a krypton/argon laser (Omnichrome, Chino, Calif.), 2 double dichroic beam splitters with λs1 /λs2 of 488/647 and 488/568 nm, 1 neutral density beam splitter (Lys Optics, Denmark), the Leica CLSM software accessories, and the Leica true color display graphics package was used to produce the confocal images.
In addition to DNA fragmentation, apoptotic lymphocytes display condensation of chromatin, loss of DNA and fragmentation of nuclei that can be detected by confocal laser scanning microscopy (CLSM) of propidium iodide stained cells (R. Sgonc & G. Wick, Int. Arch. Allergy Immunol. 105:327-332 (1994)). Therefore, CLSM was used to examine Ramos cells stained for DNA with propidium iodide and stained for phosphotyrosine (FIG. 29). In the experiments shown in FIG. 29, Ramos B cells were fixed, permeabilized and stained with propidium iodide for DNA (red) and with anti-phosphotyrosine antibodies (green) as described above. […]

[3] = test system: mixed lymphocyte response cultures dependent on CD28 costimulation; assay: Mixed lymphocyte response cultures; assay type: cell-based; conditions: 0.5 to 5 μM BMLOV
Method: Mixed lymphocyte response cultures that are dependent on CD28 costimulation were inhibited by over 50% by 0.5 to 5 μM BMLOV (FIG. 8).

[4] = test system: REH, Ramos, CEM, Jurkat, HL-60, and THP-1; assay: [3H]thymidine incorporation, cell line panel (FIG. 17); assay type: cell-based; conditions: 5 μM pV(phen), 5 days
Method: Similar results are shown in FIG. 17 for the cell lines REH, Ramos, CEM, Jurkat, HL-60, and THP-1. Cells were treated 5 days with the amount of inhibitor indicated and [^3 H]-thymidine incorporation was then measured to determine proliferation. The percent inhibition was calculated relative to untreated controls. Results are shown for three concentrations of BMLOV (5 μM, 10 μM, and 25 μM and 5 μM of pV(phen)).

HCT116(VM)46 = assay: In vitro cytotoxicity, XTT assay
Method: (§3) The vanadate compound pV(phen) was tested for in vitro cytotoxicity in a panel of human tumor cell lines. The cell lines used were a human colon carcinoma cell line, HCT116, and two drug-resistant sublines. The HCT116(VM46) subline was selected for resistance to VM-26 and expresses the multidrug resistant (MDR) phenotype including resistance to lipophilic anticancer drugs such as paclitaxel, VP-16, VM-26, doxorubicin, and vinblastine. This cell line overexpresses P-glycoprotein, a cell surface drug efflux pump, which limits accumulation of anticancer drugs such as the ones mentioned above. […] The compound pV(phen) was also evaluated in the ovarian carcinoma cell line A2780 and a paclitaxel resistant subline A2780-Tax22.
(§4) In the cytotoxicity assays, cells were plated and 24 hr later drugs were added and serially diluted. After 72 hr of continuous drug exposure, the tetrazolium dye XTT was added. A dehydrogenase enzyme in live cells reduces the XTT to a form that absorbs light at 450 nm which can be quantitated spectrophotometrically. The greater absorbance, the greater is the number of live cells. The results are expressed as a IC50 which is a drug concentration required to inhibit cell proliferation (i.e., absorbance at 450 nm) to 50% of that of untreated control cells.

HCT116(VP)35 = assay: In vitro cytotoxicity, XTT assay
Method: as §3, §4

A2780/Tax22 = assay: In vitro cytotoxicity, XTT assay
Method: as §3, §4

SMILES | DNA fragmentation by TUNEL (Ramos B cells [1]) | DNA fragmentation by TUNEL (Jurkat T cells) | nuclear morphology by CLSM (Ramos B cells [2]) | inhibition of mixed lymphocyte response [3] | inhibition of proliferation, in words [4] | IC50 (HCT116(VM)46; hct116(vm46) cells, 72 h) [µM] | fold resistance relative to parental cell line (HCT116(VM)46; vs HCT116, 4320 min) [fold] | IC50 (HCT116(VP)35; hct116(vp35) cells, 72 h) [µM] | fold resistance relative to parental cell line (HCT116(VP)35; vs HCT116, 4320 min) [fold] | IC50 (A2780/Tax22; a2780/tax22 cells, 72 h) [µM] | fold resistance relative to parental cell line (A2780/Tax22; vs A2780, 4320 min) [fold]
Cc1occc(=O)c1[O-].Cc1occc(=O)c1[O-].[O]=[V+2] [BMLOV, Bis(maltolato)oxovanadium (IV)] | extensively induced in a dose dependent manner | little labeling was observed | extensive loss of DNA, condensation of chromatin | over 50% |  |  |  |  |  |  | 
[Na+].[O]=[V-]12([O][O]1)[O][O]2.c1cnc2c(c1)ccc1cccnc12 [pV(phen), sodium (1,10-phenanthroline) oxodiperoxovanadium (V)] |  |  |  |  | inhibits all cell types studied | 2 | 0.2 | 7.2 | 0.9 | 7.5 | 0.9
